Measurements as given in ChEMBL document CHEMBL4613325, “Design of Development Candidate eFT226, a First in Class Inhibitor of Eukaryotic Initiation Factor 4A RNA Helicase” (J Med Chem, 2020).
Calls of active or inactive are those of the source. No cut-off for these calls is given here.

Legend:
MDA-MB-231 [1] = assay: Antiproliferative activity against human MDA-MB-231 cells assessed as reduction in cell proliferation incubated for 72 hrs by CellTiter-Glo reagent based assay; type: functional; details: MDA-MB-231, 72 h
[2] = Apparent permeability from apical to basolateral side in human Caco2 cells at 10 uM by LC/MS/MS analysis
[3] = target: Voltage-gated inwardly rectifying potassium channel KCNH2 (Homo sapiens, UniProt Q12809); assay: Inhibition of human ERG by patch-clamp assay
Voltage-gated inwardly rectifying potassium channel KCNH2, sequence (Q12809 whole entry): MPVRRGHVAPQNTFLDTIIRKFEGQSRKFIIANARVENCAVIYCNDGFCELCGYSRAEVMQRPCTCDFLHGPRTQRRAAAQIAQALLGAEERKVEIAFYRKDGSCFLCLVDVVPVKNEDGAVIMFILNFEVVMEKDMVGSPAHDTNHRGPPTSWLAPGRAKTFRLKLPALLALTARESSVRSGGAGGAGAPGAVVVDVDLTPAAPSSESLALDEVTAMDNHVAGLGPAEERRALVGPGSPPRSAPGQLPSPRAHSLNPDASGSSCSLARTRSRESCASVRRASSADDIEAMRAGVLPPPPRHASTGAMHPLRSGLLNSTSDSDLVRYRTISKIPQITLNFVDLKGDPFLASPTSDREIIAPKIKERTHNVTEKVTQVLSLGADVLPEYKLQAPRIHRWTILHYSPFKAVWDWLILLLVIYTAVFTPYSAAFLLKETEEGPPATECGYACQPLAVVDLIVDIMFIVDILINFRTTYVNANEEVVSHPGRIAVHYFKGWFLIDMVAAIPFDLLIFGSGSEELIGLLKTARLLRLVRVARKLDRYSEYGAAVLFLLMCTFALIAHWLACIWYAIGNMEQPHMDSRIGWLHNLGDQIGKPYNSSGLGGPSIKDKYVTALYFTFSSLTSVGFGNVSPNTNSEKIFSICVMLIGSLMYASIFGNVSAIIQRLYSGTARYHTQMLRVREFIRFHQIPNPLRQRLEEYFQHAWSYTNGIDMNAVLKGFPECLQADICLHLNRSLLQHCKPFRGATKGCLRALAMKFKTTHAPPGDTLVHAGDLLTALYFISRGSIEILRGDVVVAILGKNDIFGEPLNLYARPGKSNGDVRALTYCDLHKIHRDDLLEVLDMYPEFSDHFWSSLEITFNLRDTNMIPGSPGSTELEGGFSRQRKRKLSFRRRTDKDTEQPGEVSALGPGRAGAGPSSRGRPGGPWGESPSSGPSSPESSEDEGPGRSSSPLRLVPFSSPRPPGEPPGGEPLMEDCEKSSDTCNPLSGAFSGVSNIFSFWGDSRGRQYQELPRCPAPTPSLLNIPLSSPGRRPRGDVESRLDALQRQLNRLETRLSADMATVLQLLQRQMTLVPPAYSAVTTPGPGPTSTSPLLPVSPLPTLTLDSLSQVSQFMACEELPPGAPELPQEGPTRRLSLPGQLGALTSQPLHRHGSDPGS

[4] = Clearance in iv dosed rat; type: ADME, organism-based; details: in vivo
[5] = Volume of distribution at steady state in iv dosed rat; type: ADME, organism-based; details: in vivo, read-out: Vdss
[6] = Half life in iv dosed rat; type: ADME, organism-based; details: in vivo
[7] = AUC in iv dosed rat; type: ADME, organism-based; details: in vivo
[8] = target: T1, Eukaryotic initiation factor 4A-I (Homo sapiens, UniProt P60842); assay: Inhibition of eIF4A1 in human MDA-MB-231 cells assessed as inhibition of cellular-translation incubated for 4 hrs by specific tandem sequence motif repeat AGAGAG in 5'- UTR containing luciferase reporter gene assay; type: cell-based
T1 sequence (P60842 whole entry): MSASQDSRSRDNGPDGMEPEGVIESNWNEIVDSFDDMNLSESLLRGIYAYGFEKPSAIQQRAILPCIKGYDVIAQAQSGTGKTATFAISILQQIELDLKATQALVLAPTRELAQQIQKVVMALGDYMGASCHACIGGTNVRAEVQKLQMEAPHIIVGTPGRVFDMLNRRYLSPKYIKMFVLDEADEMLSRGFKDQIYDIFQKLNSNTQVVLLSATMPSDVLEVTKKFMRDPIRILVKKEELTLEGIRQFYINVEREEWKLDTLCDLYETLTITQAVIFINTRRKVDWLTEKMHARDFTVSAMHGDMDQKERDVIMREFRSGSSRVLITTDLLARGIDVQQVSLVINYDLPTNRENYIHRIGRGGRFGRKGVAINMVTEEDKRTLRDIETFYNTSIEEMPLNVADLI

[9] = target: T1, Eukaryotic initiation factor 4A-I; assay: Inhibition of eIF4A1 in human MDA-MB-231 cells assessed as inhibition of cellular-translation incubated for 4 hrs by specific tandem sequence motif repeat GGCGGC in 5'- UTR containing luciferase reporter gene assay; type: cell-based
[10] = target: T1, Eukaryotic initiation factor 4A-I; assay: Inhibition of eIF4A1 in human MDA-MB-231 cells assessed as inhibition of cellular-translation incubated for 4 hrs by specific tandem sequence motif repeat CCGCCG in 5'- UTR containing luciferase reporter gene assay; type: cell-based
[11] = target: T1, Eukaryotic initiation factor 4A-I; assay: Inhibition of eIF4A1 in human MDA-MB-231 cells assessed as inhibition of cellular-translation incubated for 4 hrs by specific tandem sequence motif repeat CAACAA in 5'- UTR containing luciferase reporter gene assay; type: cell-based
[12] = Inhibition of eIF4A1 F163L mutant in human HAP1 cells assessed as reduction in cell proliferation incubated for 72 hrs by CellTiter-Glo reagent based assay; details: HAP1, 72 h
MDA-MB-231 [13] = assay: Effect on GADPH protein expression in human MDA-MB-231 cells 10 to 100 nM incubated for 24 hrs by Western blot analysis; type: ADME, cell-based; details: mda-mb-231, 24 h
MDA-MB-231 [14] = assay: Antitumor activity against human MDA-MB-231 cells xenografted in athymic nude ((NCr) nu/nu mouse assessed as inhibition of tumor growth at 1 mg/kg, iv treated once weekly for 2 weeks relative to control; type: functional; details: MDA-MB-231, iv, 336 h
[15] = Toxicity in athymic nude ((NCr) nu/nu mouse xenografted with human MDA-MB-231 cells assessed as induction of body weight loss at 1 mg/kg, iv treated once weekly for 2 weeks relative to control; type: organism-based; details: in vivo, 336 h
[16] = Half life in mouse at 1 mg, iv administered as single dose measured after 0.083 to 24 hrs by LC-MS analysis; type: ADME, organism-based; details: in vivo
[17] = Half life in Sprague-Dawley rat at 1 mg, iv administered as single dose measured after 0.083 to 24 hrs by LC-MS analysis; type: ADME, organism-based; details: in vivo
[18] = Half life in monkey at 1 mg, iv administered as single dose measured after 0.083 to 24 hrs by LC-MS analysis; type: ADME, organism-based, Macaca mulatta; details: rhesus monkey, in vivo
[19] = Clearance in mouse at 1 mg, iv administered as single dose measured after 0.083 to 24 hrs by LC-MS analysis; type: ADME, organism-based; details: in vivo
[20] = Clearance in Sprague-Dawley rat at 1 mg, iv administered as single dose measured after 0.083 to 24 hrs by LC-MS analysis; type: ADME, organism-based; details: in vivo
[21] = Clearance in dog at 1 mg, iv administered as single dose measured after 0.083 to 24 hrs by LC-MS analysis; type: ADME, organism-based, Canis lupus familiaris; details: in vivo
[22] = Clearance in monkey at 1 mg, iv administered as single dose measured after 0.083 to 24 hrs by LC-MS analysis; type: ADME, organism-based, Macaca mulatta; details: rhesus monkey, in vivo
[23] = Volume of distribution at steady state in mouse at 1 mg, iv administered as single dose measured after 0.083 to 24 hrs by LC-MS analysis; type: ADME, organism-based; details: in vivo, read-out: Vdss
[24] = Volume of distribution at steady state in Sprague-Dawley rat at 1 mg, iv administered as single dose measured after 0.083 to 24 hrs by LC-MS analysis; type: ADME, organism-based; details: in vivo, read-out: Vdss
[25] = Volume of distribution at steady state in dog at 1 mg, iv administered as single dose measured after 0.083 to 24 hrs by LC-MS analysis; type: ADME, organism-based, Canis lupus familiaris; details: in vivo, read-out: Vdss
[26] = Volume of distribution at steady state in monkey at 1 mg, iv administered as single dose measured after 0.083 to 24 hrs by LC-MS analysis; type: ADME, organism-based, Macaca mulatta; details: rhesus monkey, in vivo, read-out: Vdss
[27] = Protein binding in mouse plasma; type: ADME, cell-free; details: read-out: PPB (converted)
[28] = Protein binding in rat plasma; type: ADME, cell-free; details: read-out: PPB (converted)
[29] = Protein binding in dog plasma; type: ADME, cell-free, Canis lupus familiaris; details: read-out: PPB (converted)
[30] = Protein binding in monkey plasma; type: ADME, cell-free, Macaca mulatta; details: rhesus monkey, read-out: PPB (converted)
[31] = Protein binding in human plasma; type: ADME, cell-free; details: read-out: PPB (converted)
[32] = Efflux ratio in human Caco2 cells at 10 uM by LC/MS/MS analysis
[33] = target: T1, Eukaryotic initiation factor 4A-I; assay: Binding affinity to full length recombinant eIF4A1 (unknown origin) assessed as induction ternary complex formation in presence of AGAGAG by measuring half life for AGAGAG + ATP complex formation SPR assay
[34] = target: T1, Eukaryotic initiation factor 4A-I; assay: Binding affinity to full length recombinant eIF4A1 (unknown origin) assessed as induction ternary complex formation in presence of AGAGAG by measuring half life for AGAGAG + AMP-PNP complex formation SPR assay
[35] = target: T1, Eukaryotic initiation factor 4A-I; assay: Binding affinity to full length recombinant eIF4A1 (unknown origin) assessed as induction ternary complex formation in presence of DNA oligo sequences by measuring Kd for DNA oligo sequences + ATP complex formation SPR assay
[36] = target: T1, Eukaryotic initiation factor 4A-I; assay: Inhibition of eIF4A1 in human HAP1 cells assessed as reduction in c-MYC protein expression at 5 to 50 nM incubated for 24 hrs by Western blot analysis; type: cell-based
[37] = target: T1, Eukaryotic initiation factor 4A-I; assay: Inhibition of eIF4A1 in human HAP1 cells assessed as reduction in MCL-1 protein expression at 5 to 50 nM incubated for 24 hrs by Western blot analysis; type: cell-based
[38] = target: T1, Eukaryotic initiation factor 4A-I; assay: Inhibition of eIF4A1 in human HAP1 cells assessed as reduction in Cyclin D1 protein expression at 5 to 50 nM incubated for 24 hrs by Western blot analysis; type: cell-based
HAP1 [39] = assay: Inhibition of eIF4A1 F163L mutant in human HAP1 cells assessed as reduction in c-MYC protein expression at 5 to 50 nM incubated for 24 hrs by Western blot analysis; type: cell-based
HAP1 [40] = assay: Inhibition of eIF4A1 F163L mutant in human HAP1 cells assessed as reduction in MCL-1 protein expression at 5 to 50 nM incubated for 24 hrs by Western blot analysis; type: cell-based
HAP1 [41] = assay: Inhibition of eIF4A1 F163L mutant in human HAP1 cells assessed as reduction in Cyclin D1 protein expression at 5 to 50 nM incubated for 24 hrs by Western blot analysis; type: cell-based
Homo sapiens = species: Homo sapiens; assay: Inhibition of L-type calcium channel diltiazem binding site (unknown origin) at 10 uM relative to control
MDA-MB-231 [42] = assay: Induction of cell cycle arrest in human MDA-MB-231 cells assessed as increase in G2/M population incubated for 24 hrs by LIVE/DEAD fixable dead cell staining based flow cyclometry; type: functional
MDA-MB-231 [43] = assay: Induction of apoptosis in human MDA-MB-231 cells assessed as increase in apoptotic cells level incubated for 24 hrs by annexin V and propidium iodide staining based flow cyclometry; type: functional, cell-based
MDA-MB-231 [44] = assay: Induction of apoptosis in human MDA-MB-231 cells assessed as increase in dead cells level incubated for 24 hrs by annexin V and propidium iodide staining based flow cyclometry; type: functional, cell-based
[45] = target: T1, Eukaryotic initiation factor 4A-I; assay: Inhibition of eIF4A1 in human MDA-MB-231 cells assessed as reduction in cyclin D1 protein expression at 10 to 100 nM incubated for 24 hrs by Western blot analysis; type: cell-based
[46] = target: T1, Eukaryotic initiation factor 4A-I; assay: Inhibition of eIF4A1 in human MDA-MB-231 cells assessed as reduction in BCL2 protein expression at 10 to 100 nM incubated for 24 hrs by Western blot analysis; type: cell-based

## COc1cc2c(c(OC)n1)[C@]1(O)[C@H](O)[C@H](CN(C)C)[C@@H](c3ccccc3)[C@]1(c1ccc(C#N)cc1)O2 [ZOTATIFIN]
MDA-MB-231 [1]
  IC50: 10.6 nM
[2]; Caco-2
  Papp A→B at 10 µM: 2.5 ×10⁻⁶ cm/s
[3]
  IC50: > 10 µM
[4]
  clearance: 48 mL/min/kg
[5]
  Vd: 13 L/kg
[6]
  half-life: 264 min
[7]
  AUC: 390 ng·h/mL
[8]
  IC50: 1.5 nM
[9]
  IC50: 13.8 nM
[10]
  IC50: 92 nM
[11]
  IC50: 218 nM
[12]
  IC50: 371 nM
MDA-MB-231 [13]
  Activity: Non-Toxic
MDA-MB-231 [14]
  inhibition in vivo at 1 mg/kg: 122%
[15]
  Activity: Non-Toxic
[16]
  half-life: 654 min
[17]
  half-life: 263 min
[18]
  half-life: 894 min
[19]
  clearance: 15.8 mL/min/kg
[20]
  clearance: 48.3 mL/min/kg
[21]
  clearance: < 12.4 mL/min/kg
[22]
  clearance: 11.7 mL/min/kg
[23]
  Vd: 12.1 L/kg
[24]
  Vd: 13 L/kg
[25]
  Vd: 17.8 L/kg
[26]
  Vd: 12.2 L/kg
[27]
  fraction unbound: 0.252
[28]
  fraction unbound: 0.266
[29]
  fraction unbound: 0.188
[30]
  fraction unbound: 0.365
[31]
  fraction unbound: 0.332

## COc1cncc2c1[C@]1(O)[C@H](O)[C@H](CN(C)C)[C@@H](c3ccccc3)[C@]1(c1ccc(C#N)cc1)O2 (stereo in doubt; (-)-37)
MDA-MB-231 [1]
  IC50: 54 nM
[2]; Caco-2, Papp
  Papp A→B at 10 µM: 0.21 ×10⁻⁶ cm/s
[32]; Caco-2, Ratio
  efflux ratio at 10 µM: 22
[3]
  IC50: > 10 µM
[4]
  clearance: 39 mL/min/kg
[5]
  Vd: 5.2 L/kg
[6]
  half-life: 174 min
[7]
  AUC: 440 ng·h/mL

## C[C@H]1C[C@@]2(O[C@H]3C[C@H]4[C@@H]5CC[C@H]6C[C@H](O)CC[C@]6(C)[C@H]5[C@@H](O)C[C@]4(C)[C@H]3[C@@]2(C)O)OC1(C)C [HIPPURISTANOL]
[8]
  IC50: 426 nM
[9]
  IC50: 369 nM
[10]
  IC50: 210 nM
[11]
  IC50: 204 nM

## C[C@@H]1C[C@@H]([C@H](O)CC2CC(=O)NC(=O)C2)C(=O)[C@@H](C)C1 [CYCLOHEXIMIDE]
[8]
  IC50: 226 nM
[9]
  IC50: 101 nM
[10]
  IC50: 87 nM
[11]
  IC50: 142 nM

## COc1cncc2c1[C@]1(O)[C@H](O)[C@H](CN(C)C)[C@@H](c3ccccc3)[C@]1(c1ccc(C#N)cc1)O2.Cl
physchem
  solubility thermodynamic: > 20 mg/mL

## COc1cc2c(c(OC)n1)[C@]1(O)[C@H](O)[C@H](CN(C)C)[C@@H](c3ccccc3)[C@]1(c1ccc(C#N)cc1)O2.Cl
physchem
  solubility thermodynamic: > 20 mg/mL

## COc1cncc2c1[C@]1(O)[C@H](O)[C@H](C(=O)N(C)C)[C@@H](c3ccccc3)[C@]1(c1ccc(C#N)cc1)O2
MDA-MB-231 [1]
  IC50: 33 nM
[2]; Caco-2
  Papp A→B at 10 µM: 0.65 ×10⁻⁶ cm/s
[32]; Caco-2
  efflux ratio at 10 µM: 5
[4]
  clearance: 18 mL/min/kg
[5]
  Vd: 1.1 L/kg
[6]
  half-life: 120 min
[7]
  AUC: 950 ng·h/mL

## COc1nc(C#N)cc2c1[C@]1(O)[C@H](O)[C@H](CN(C)C)[C@@H](c3ccccc3)[C@]1(c1ccc(C#N)cc1)O2
MDA-MB-231 [1]
  IC50: 15 nM
[4]
  clearance: 26 mL/min/kg
[5]
  Vd: 10.3 L/kg
[6]
  half-life: 660 min
[7]
  AUC: 730 ng·h/mL

## COc1cncc2c1[C@]1(O)[C@H](O)[C@H](C(=O)N(C)C)[C@@H](c3ccccc3)[C@]1(c1ccc(C#N)cc1)O2.Cl
physchem
  solubility thermodynamic: 0.22 mg/mL

## COc1cc2c(c(OC)n1)[C@]1(O)[C@H](O)[C@H](CN(C)C)[C@@H](c3ccccc3)[C@]1(c1ccc(C#N)cc1)O2
[33]
  T1/2: 1.32 min
[34]
  T1/2: 38.5 min
[35]
  Activity: inactive
[8]
  inhibition: Dose-dependent effect
[9]
  inhibition: Dose-dependent effect
[10]
  inhibition: Dose-dependent effect
[11]
  inhibition: Dose-dependent effect
[36]
  inhibition: Dose-dependent effect
[37]
  inhibition: Dose-dependent effect
[38]
  inhibition: Dose-dependent effect
HAP1 [39]
  inhibition: inactive
HAP1 [40]
  inhibition: inactive
HAP1 [41]
  inhibition: inactive
Homo sapiens
  inhibition: 54%
MDA-MB-231 [42]
  Activity: Dose-dependent effect
MDA-MB-231 [43]
  Activity: Dose-dependent effect
MDA-MB-231 [44]
  Activity: Dose-dependent effect
[45]
  inhibition: Active
[46]
  inhibition: Active
